Data as given in paper PMC4979471 (Cell Death Discovery, 2015).
Like-named read-outs stand apart in the source and are kept apart here.

What was measured:
Assay in all cases: Kinase selectivity, P33-radiolabeled assay
Type in all cases: biochemical
[1] = biological target: T1, NIK/MAP3K14 (Homo sapiens, UniProt Q99558); details: 10 μM ATP
T1 construct: purchased Reaction Biology Corp
In short: (§1)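 Percent residual kinase activity versus DMSO is reported. Conditions: compound at 10 μM, ATP at 10 μM, n = 2.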

[2] = biological target: T2, CDK6/cyclin D3 (Homo sapiens, UniProt Q00534); details: 10 μM ATP
T2 construct: purchased Reaction Biology Corp
In short: as §1

[3] = biological target: T3, MINK/MINK1 (Homo sapiens, UniProt Q8N4C8); details: 10 μM ATP
T3 construct: purchased Reaction Biology Corp
In short: as §1

[4] = biological target: T4, P38g (Homo sapiens, UniProt P53778); details: 10 μM ATP
T4 construct: purchased Reaction Biology Corp
T4 sequence (P53778 1-367): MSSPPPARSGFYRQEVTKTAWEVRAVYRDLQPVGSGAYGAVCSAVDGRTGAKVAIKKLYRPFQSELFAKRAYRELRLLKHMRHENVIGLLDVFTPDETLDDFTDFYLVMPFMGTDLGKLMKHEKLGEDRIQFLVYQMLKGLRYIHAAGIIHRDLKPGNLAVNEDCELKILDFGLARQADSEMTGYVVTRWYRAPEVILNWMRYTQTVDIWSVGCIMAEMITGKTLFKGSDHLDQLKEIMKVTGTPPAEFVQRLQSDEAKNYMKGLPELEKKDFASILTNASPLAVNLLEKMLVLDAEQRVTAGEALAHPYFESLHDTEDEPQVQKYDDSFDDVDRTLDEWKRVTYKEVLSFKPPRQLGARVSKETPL
In short: as §1

[5] = biological target: T5, FLT4/VEGFR3 (Homo sapiens, UniProt P35916); details: 10 μM ATP
T5 construct: purchased Reaction Biology Corp
In short: as §1

[6] = biological target: T6, PAK2 (Homo sapiens, UniProt Q13177); details: 10 μM ATP
T6 construct: purchased Reaction Biology Corp
In short: as §1

[7] = biological target: T7, SNARK/NUAK2 (Homo sapiens, UniProt Q9H093); details: 10 μM ATP
T7 construct: purchased Reaction Biology Corp
T7 sequence (Q9H093 1-628): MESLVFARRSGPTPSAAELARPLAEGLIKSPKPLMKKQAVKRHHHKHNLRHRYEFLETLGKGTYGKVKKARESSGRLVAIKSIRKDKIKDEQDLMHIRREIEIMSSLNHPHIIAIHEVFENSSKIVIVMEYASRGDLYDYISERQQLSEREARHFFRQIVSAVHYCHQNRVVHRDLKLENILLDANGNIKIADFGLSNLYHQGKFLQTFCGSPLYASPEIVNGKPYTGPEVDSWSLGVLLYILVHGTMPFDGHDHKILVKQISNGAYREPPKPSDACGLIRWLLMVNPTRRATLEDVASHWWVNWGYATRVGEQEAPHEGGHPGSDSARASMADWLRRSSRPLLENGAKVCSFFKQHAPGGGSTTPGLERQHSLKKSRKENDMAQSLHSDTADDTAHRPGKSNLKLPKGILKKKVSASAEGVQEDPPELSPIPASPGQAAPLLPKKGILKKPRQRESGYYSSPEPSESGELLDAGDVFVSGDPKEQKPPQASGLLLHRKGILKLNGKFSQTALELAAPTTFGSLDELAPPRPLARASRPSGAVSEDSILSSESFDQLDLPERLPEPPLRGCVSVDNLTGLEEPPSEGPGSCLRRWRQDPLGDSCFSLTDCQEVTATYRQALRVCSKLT
In short: as §1

[8] = biological target: T8, HPK1/MAP4K1 (Homo sapiens, UniProt Q92918); details: 10 μM ATP
T8 construct: purchased Reaction Biology Corp
In short: as §1

[9] = biological target: T9, CAMK2b (Homo sapiens, UniProt Q13554); details: 10 μM ATP
T9 construct: purchased Reaction Biology Corp
In short: as §1

[10] = biological target: T10, ROS/ROS1 (Homo sapiens, UniProt P08922)
T10 construct: purchased Reaction Biology Corp
In short: as §1

[11] = biological target: T11, PKCa (Homo sapiens, UniProt P17252); details: 10 μM ATP
T11 construct: purchased Reaction Biology Corp
In short: as §1

[12] = biological target: T12, DYRK3 (Homo sapiens, UniProt O43781); details: 10 μM ATP
T12 construct: purchased Reaction Biology Corp
T12 sequence (O43781 1-588): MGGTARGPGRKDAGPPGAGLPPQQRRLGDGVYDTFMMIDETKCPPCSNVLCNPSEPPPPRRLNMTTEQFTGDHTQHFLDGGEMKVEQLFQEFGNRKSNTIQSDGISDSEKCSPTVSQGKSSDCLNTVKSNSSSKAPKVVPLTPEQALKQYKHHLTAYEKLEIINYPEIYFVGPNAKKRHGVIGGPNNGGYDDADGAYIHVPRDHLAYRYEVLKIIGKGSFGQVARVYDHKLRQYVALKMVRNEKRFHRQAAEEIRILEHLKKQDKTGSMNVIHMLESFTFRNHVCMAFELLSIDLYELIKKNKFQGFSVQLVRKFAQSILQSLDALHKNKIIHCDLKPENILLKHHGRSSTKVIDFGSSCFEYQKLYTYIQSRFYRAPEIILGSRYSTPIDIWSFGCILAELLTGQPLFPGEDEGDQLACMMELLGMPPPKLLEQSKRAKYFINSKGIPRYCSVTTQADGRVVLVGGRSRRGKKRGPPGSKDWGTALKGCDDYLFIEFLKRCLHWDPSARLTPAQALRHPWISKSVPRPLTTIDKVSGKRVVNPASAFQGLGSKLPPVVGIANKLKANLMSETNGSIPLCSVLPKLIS
In short: as §1

[13] = biological target: T13, YES/YES1 (Homo sapiens, UniProt P07947); details: 10 μM ATP
T13 construct: purchased Reaction Biology Corp
In short: as §1

[14] = biological target: T14, STK25/YSK1 (Homo sapiens, UniProt O00506); details: 10 μM ATP
T14 construct: purchased Reaction Biology Corp
In short: as §1

[15] = read-out: % Enzyme Activity (relative to DMSO controls) AVG
[16] = read-out: % Enzyme Activity (relative to DMSO controls) Data 1
[17] = read-out: % Enzyme Activity (relative to DMSO controls) Data 2

T13 sequence (P07947 whole entry): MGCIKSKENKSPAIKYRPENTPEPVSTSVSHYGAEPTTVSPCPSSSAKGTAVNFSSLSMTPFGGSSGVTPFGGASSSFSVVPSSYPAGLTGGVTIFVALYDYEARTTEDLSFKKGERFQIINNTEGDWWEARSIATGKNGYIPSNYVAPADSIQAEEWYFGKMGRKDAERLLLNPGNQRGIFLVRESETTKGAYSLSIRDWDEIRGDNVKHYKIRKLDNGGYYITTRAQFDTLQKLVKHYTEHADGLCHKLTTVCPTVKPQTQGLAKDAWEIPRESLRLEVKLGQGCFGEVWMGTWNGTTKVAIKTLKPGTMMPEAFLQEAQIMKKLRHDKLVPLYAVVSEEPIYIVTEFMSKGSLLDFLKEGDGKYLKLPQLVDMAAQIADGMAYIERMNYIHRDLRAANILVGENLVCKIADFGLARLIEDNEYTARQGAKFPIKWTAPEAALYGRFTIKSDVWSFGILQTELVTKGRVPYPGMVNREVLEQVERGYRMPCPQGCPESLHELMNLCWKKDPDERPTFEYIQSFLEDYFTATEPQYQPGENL
T6 sequence (Q13177 whole entry): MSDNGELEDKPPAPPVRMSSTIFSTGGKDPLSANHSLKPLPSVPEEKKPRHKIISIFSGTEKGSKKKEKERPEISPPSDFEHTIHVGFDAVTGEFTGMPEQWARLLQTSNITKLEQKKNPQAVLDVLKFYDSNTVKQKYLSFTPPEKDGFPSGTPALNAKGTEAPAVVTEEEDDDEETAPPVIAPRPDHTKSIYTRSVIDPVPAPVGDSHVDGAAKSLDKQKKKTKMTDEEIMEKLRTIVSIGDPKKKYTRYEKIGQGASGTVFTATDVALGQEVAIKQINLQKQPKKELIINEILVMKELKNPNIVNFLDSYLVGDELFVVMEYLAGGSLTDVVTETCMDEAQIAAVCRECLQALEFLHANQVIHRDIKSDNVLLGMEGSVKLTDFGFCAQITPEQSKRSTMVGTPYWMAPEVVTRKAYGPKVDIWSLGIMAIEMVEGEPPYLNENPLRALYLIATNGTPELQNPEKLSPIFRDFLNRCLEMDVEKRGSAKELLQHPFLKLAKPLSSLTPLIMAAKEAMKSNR
T2 sequence (Q00534 whole entry): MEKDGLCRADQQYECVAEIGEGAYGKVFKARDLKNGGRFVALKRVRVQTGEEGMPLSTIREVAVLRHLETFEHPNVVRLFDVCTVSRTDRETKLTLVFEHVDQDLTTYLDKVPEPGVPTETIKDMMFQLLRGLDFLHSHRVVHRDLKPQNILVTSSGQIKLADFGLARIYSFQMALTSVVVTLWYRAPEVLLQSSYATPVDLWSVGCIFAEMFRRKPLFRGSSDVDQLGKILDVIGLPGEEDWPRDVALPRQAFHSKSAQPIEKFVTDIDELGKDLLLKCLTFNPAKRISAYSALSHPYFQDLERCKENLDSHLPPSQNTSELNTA
T2 sequence (P30281 whole entry partner): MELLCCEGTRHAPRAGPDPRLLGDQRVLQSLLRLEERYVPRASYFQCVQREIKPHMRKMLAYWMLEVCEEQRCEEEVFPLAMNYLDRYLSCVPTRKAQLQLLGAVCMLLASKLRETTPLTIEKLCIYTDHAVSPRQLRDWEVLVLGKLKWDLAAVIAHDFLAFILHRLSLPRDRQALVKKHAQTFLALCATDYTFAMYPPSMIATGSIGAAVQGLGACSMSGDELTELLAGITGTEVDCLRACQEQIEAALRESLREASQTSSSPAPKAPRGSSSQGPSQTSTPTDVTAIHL
T1 sequence (Q99558 whole entry): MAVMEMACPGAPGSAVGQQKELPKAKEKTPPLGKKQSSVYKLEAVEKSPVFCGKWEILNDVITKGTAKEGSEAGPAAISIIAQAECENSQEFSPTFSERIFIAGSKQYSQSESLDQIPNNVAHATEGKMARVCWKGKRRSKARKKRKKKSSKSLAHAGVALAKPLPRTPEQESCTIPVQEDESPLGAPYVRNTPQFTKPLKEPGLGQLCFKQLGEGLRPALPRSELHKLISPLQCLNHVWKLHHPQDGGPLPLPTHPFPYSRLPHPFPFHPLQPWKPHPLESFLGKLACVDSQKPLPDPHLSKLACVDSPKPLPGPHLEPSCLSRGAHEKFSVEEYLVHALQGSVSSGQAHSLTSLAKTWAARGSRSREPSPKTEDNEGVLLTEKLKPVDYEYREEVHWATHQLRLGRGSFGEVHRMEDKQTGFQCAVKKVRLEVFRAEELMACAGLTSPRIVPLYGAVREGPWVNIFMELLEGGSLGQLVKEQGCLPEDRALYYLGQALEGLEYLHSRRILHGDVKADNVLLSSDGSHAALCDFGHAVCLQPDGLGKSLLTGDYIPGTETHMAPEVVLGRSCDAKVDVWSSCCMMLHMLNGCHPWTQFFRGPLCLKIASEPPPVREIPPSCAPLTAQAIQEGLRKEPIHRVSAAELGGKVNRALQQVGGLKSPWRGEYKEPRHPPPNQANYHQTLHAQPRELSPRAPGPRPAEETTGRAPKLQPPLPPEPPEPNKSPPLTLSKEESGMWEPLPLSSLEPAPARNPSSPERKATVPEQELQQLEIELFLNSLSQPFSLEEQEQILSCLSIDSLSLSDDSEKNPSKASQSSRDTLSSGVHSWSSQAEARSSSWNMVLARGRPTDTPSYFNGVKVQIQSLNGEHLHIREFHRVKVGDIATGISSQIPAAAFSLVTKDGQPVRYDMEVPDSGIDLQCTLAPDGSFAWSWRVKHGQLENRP
T9 sequence (Q13554 whole entry): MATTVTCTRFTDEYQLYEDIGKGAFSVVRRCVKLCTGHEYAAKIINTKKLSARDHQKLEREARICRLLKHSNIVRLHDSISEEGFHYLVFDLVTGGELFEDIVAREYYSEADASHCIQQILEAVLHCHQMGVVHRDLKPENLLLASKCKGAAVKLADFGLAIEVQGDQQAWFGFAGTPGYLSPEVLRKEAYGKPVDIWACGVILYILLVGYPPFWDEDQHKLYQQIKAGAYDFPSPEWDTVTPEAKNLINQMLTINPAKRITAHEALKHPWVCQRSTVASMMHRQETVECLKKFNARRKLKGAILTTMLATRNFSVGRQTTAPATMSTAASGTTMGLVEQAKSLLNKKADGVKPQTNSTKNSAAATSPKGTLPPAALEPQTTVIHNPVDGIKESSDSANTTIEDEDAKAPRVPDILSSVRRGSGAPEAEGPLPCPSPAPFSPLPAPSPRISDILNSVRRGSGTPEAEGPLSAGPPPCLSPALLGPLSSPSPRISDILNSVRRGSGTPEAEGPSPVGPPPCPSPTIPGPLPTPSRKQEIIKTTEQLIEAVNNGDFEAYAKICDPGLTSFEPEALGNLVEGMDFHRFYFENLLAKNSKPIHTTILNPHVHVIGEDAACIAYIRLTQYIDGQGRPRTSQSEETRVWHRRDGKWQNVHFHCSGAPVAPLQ
T3 sequence (Q8N4C8 whole entry): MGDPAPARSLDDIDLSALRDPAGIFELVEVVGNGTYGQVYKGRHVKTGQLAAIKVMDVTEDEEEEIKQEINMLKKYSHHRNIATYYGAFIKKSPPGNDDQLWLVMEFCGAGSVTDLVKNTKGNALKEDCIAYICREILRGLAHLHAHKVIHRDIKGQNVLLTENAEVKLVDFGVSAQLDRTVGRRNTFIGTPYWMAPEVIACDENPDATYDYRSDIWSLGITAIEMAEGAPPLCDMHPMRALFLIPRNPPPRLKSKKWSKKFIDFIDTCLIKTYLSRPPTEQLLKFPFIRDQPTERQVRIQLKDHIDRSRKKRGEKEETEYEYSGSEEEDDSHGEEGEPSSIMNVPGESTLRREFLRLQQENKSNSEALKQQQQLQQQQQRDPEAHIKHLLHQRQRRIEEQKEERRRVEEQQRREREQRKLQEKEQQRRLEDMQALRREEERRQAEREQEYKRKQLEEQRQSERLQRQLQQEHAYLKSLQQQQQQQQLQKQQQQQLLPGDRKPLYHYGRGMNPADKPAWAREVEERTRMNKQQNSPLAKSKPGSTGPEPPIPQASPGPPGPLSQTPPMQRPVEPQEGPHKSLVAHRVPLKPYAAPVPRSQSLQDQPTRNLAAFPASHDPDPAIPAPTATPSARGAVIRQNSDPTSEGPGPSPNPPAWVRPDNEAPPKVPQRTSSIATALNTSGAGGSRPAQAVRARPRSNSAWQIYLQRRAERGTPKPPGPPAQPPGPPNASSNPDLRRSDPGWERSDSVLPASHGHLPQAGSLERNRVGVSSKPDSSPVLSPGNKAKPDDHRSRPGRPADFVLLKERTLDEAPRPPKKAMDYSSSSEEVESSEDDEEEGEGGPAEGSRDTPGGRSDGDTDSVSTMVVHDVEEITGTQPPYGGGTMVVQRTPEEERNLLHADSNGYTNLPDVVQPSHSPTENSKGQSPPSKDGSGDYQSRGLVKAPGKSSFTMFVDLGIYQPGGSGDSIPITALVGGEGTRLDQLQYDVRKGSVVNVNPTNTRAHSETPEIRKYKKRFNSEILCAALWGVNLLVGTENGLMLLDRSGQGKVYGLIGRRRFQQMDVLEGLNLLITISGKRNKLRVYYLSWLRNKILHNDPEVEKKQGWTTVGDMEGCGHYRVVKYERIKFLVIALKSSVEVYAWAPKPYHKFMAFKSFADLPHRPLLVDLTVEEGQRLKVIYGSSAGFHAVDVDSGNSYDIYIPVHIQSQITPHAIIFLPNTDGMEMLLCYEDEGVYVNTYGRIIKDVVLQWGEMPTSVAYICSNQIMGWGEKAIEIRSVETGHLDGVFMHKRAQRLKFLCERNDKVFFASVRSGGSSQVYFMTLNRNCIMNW

CC(C)(C)C(=O)N1N=CC[C@H]1c1ccccc1 [GSK′963]
remaining activity at 10 µM [1, 15]: 98.2%
remaining activity at 10 µM [1, 16]: 93.4%
remaining activity at 10 µM [1, 17]: 103%
remaining activity at 10 µM [2, 15]: 86.9%
remaining activity at 10 µM [2, 16]: 84.5%
remaining activity at 10 µM [2, 17]: 89.3%
remaining activity at 10 µM [3, 15]: 90.2%
remaining activity at 10 µM [3, 16]: 89.8%
remaining activity at 10 µM [3, 17]: 90.6%
remaining activity at 10 µM [4, 15]: 101%
remaining activity at 10 µM [4, 16]: 103%
remaining activity at 10 µM [4, 17]: 98.7%
remaining activity at 10 µM [5, 15]: 103%
remaining activity at 10 µM [5, 16]: 105%
remaining activity at 10 µM [5, 17]: 102%
remaining activity at 10 µM [6, 15]: 95.8%
remaining activity at 10 µM [6, 16]: 94.9%
remaining activity at 10 µM [6, 17]: 96.8%
remaining activity at 10 µM [7, 15]: 99.1%
remaining activity at 10 µM [7, 16]: 99.2%
remaining activity at 10 µM [7, 17]: 99%
remaining activity at 10 µM [8, 15]: 100%
remaining activity at 10 µM [8, 16]: 100%
remaining activity at 10 µM [8, 17]: 101%
remaining activity at 10 µM [9, 15]: 95.1%
remaining activity at 10 µM [9, 16]: 94.1%
remaining activity at 10 µM [9, 17]: 96.1%
remaining activity at 10 µM ([10]; 10 uM, 10 μM ATP, read-out: % Enzyme Activity (relative to DMSO controls) Data 1): 102%
remaining activity at 10 µM ([10]; 10 uM, 10 μM ATP, read-out: % Enzyme Activity (relative to DMSO controls) Data 2): 100%
remaining activity at 10 µM [10, 15]: 101%
remaining activity at 10 µM [11, 15]: 96.9%
remaining activity at 10 µM [11, 16]: 95.7%
remaining activity at 10 µM [11, 17]: 98%
remaining activity at 10 µM [12, 15]: 115%
remaining activity at 10 µM [12, 16]: 113%
remaining activity at 10 µM [12, 17]: 116%
remaining activity at 10 µM [13, 15]: 88.2%
remaining activity at 10 µM [13, 16]: 88.7%
remaining activity at 10 µM [13, 17]: 87.8%
remaining activity at 10 µM [14, 15]: 96.1%
remaining activity at 10 µM [14, 16]: 96.7%
remaining activity at 10 µM [14, 17]: 95.4%
